Reference: patent US20250324955A1, “ZEBRAFISH MODEL OF HUMAN ACUTE MYELOID LEUKEMIA AND METHOD OF USE THEREOF” (Versitech Limited, priority 2022, published 2025)

Experiments:
wildtype zebrafish = assay: Initial dose-finding study in adult fish, daily oral gavage, survival; assay type: in vivo; conditions: daily gavage of quizartinib at 10 mg/kg, enasidenib at 100 mg/kg, 14 days
Experimental: (§1) Drugs at three concentrations (0.01 μM, 0.1 μM and 1 μM) were added to the embryos in E3 medium with (1-phenyl-2-thiourea) PTU at 6 hpf, and the medium was changed every 24 hours. At 4 dpf, embryos were collected and fixed in 4% PFA for SSB staining. […] Adult zebrafish were anesthetized using 0.015% Tricaine. […] Treated zebrafish were then placed into an individual recovery tank with fresh sterile fish water immediately after the gavage procedure. The drug regimen was repeated daily for 14 days. The gavage apparatus was consisted of a 10 μl microliter syringe (Gaoge, Shanghai, China) and a polyethylene tubing (BTPE-50, INTECH, USA), and was adapted from Collymore et al., 2013 and Dang, Michelle, et al., 2016.

[1] = tested on: Tg(Runx1:FLT3^ITDIDH2^R172K) and Tg(Runx1:FLT3^ITDIDH2^R140Q) embryos; assay: Drug treatment of double transgenic embryos, SBB staining as surrogate for embryonic myelopoiesis; assay type: in vivo, zebrafish; conditions: drugs at 0.01 μM, 0.1 μM and 1 μM from 6 hpf, stained at 4 dpf
Experimental: as §1, with “days.” for “days. The gavage apparatus was consisted of a 10 μl microliter syringe (Gaoge, Shanghai, China) and a polyethylene tubing (BTPE-50, INTECH, USA), and was adapted from Collymore et al., 2013 and Dang, Michelle, et al., 2016.”

[2] = tested on: FLT3^ITD and IDH2 double mutant zebrafish; assay: 14-day oral gavage treatment of adult double transgenic leukemic fish, kidney marrow analysis; assay type: in vivo; conditions: daily oral gavage 14 days, quizartinib 10 mg/kg, enasidenib 100 mg/kg
Experimental: (§2) Zebrafish WKM were harvested from two to twelve months old transgenic or wildtype TU fish. The collected KM was dissociated in 0.9×PBS with 5% fetal bovine serum (FBS) by pipetting and filtered through a 40 μm nylon cell strainer (Corning, NY, USA). The cells were then centrifuged at 500 g for 5 minutes, resuspended, filtered, and washed with 0.9×PBS with 5% (FBS) at least twice. Flow cytometry of the KM was performed using a MoFlo XDP flow cytometer (Beckman coulter). The data was analyzed using FlowJo™ v10.6.1 software. Cytospin preparations were made with 2×10^5 to 3×10^5 cells cytocentrifuged at 400 rpm for 5 minutes onto microscope glass slides (Thermo scientific). The glass slides were dried at room temperature for more than 12 hours, stained with Wright-Giemsa stain, and imaged with Nikon DS-Ri2 digital camera fitted to a Nikon Eclipse Ni-U microscope.
as §1, with “days.” for “days. The gavage apparatus was consisted of a 10 μl microliter syringe (Gaoge, Shanghai, China) and a polyethylene tubing (BTPE-50, INTECH, USA), and was adapted from Collymore et al., 2013 and Dang, Michelle, et al., 2016.”

[3] = tested on: Tg(Runx1:FLT3^ITDIDH2^R140Q) zebrafish; assay: 14-day oral gavage treatment of adult Tg(Runx1:FLT3^ITDIDH2^R140Q) fish; assay type: in vivo; conditions: adult Tg(Runx1:FLT3^ITD IDH2^R140Q) double mutant; treatment with Quizartinib and/or Enasidenib, 14 days
Experimental: as §2
as §1, with “days.” for “days. The gavage apparatus was consisted of a 10 μl microliter syringe (Gaoge, Shanghai, China) and a polyethylene tubing (BTPE-50, INTECH, USA), and was adapted from Collymore et al., 2013 and Dang, Michelle, et al., 2016.”

[4] = tested on: Tg(Runx1:FLT3^ITDIDH2^R172K) zebrafish; assay: 14-day oral gavage treatment of adult Tg(Runx1:FLT3^ITDIDH2^R172K) fish; assay type: in vivo; conditions: adult Tg(Runx1:FLT3^ITDIDH2^R172K) double mutants; treatment with Quizartinib and/or Enasidenib, 14 days
Experimental: as §2
as §1, with “days.” for “days. The gavage apparatus was consisted of a 10 μl microliter syringe (Gaoge, Shanghai, China) and a polyethylene tubing (BTPE-50, INTECH, USA), and was adapted from Collymore et al., 2013 and Dang, Michelle, et al., 2016.”

| SMILES | fish survival (wildtype zebrafish) | embryonic myelopoiesis (cytochemical staining with SBB) [1] | blast counts in KM ([2]; alone or combined) | erythroid cells in KM / erythropoiesis ([2]; alone or combined) | neutrophils in KM ([2]; alone or combined) | cellularity in KM ([2]; monotherapy) | spleen size [3] | spleen size [4] |
| --- | --- | --- | --- | --- | --- | --- | --- | --- |
| CC(C)(C)c1cc(NC(=O)Nc2ccc(-c3cn4c(n3)sc3cc(OCCN5CCOCC5)ccc34)cc2)no1 [quizartinib, Quizartinib] | compatible with normal fish survival |  |  |  |  |  |  |  |
| CC(C)(O)CNc1nc(Nc2ccnc(C(F)(F)F)c2)nc(-c2cccc(C(F)(F)F)n2)n1 [enasidenib, Enasidenib] | compatible with normal fish survival | ameliorated the increase in myelopoiesis | reduced blast counts in KM | significant increase in neutrophils and erythroid | significant increase in neutrophils | but not enasidenib monotherapy significantly reduced cellularity | no changes were observed in spleen size | decreased spleen sizes |
